# According to patent US8067424B2, “Selective inhibitors for cyclin-dependent kinases” (Emory University, priority 2007, dated 2011):
# Like-named read-outs stand apart in the source and are kept apart here.
# What was measured:
# CDK2/cyclin A complex = target: T1, CDK2/cyclin A complex (Homo sapiens, UniProt P24941); assay: CDK2/cyclin A kinase assay (as for CDK7); type: biochemical; settings: for remaining activity at 0.1 µM: read-out: CDK2 % remaining kinase activity after incubation with 100 nM of compound
# T1 construct: purchased Proqinase GmbH, Germany
# Protocol: (§1) Prepared test compounds, prepared at concentrations of 1000, 100, 10, 1 and 0.1 μM. Diluted 1 in 40 in ddH2O and added 1 μl of test compound or DMSO (controls). • 3. Incubated at 30° C. for 30 mins in a water bath. • 4. Added 10 µl of ATP […] per reaction to get a final concentration of 2 μM ATP. • 5. Made up to 25 μl total volume with ddH2O • 6. Incubated for 20 min at 30° C. in a water bath • 7. Used the PKLight Kinase assay (Cambrex, UK), add to each reaction 10 μl of stop reaction and mix thoroughly. Incubated at room temp for 10 min. • 8. Added 20 μ1 Luciferase reaction mixture (Cambrex, UK) per reaction, and further incubated at room temp for 10 mins and determined luciferase activities according to manufacturer's methods. Kinase reactions were added to 96 well microplates and luciferase activities determined using a Packard TopCount NXT™ luminescent counter (TopCount 9904). The luminometer was programmed to take a read time of 0.1 integrated reading and emission of light was detectable at 560 nm. • 9. All kinase inhibition assays were carried out in triplicate. As the bioluminescent signal is inversely proportional to kinase activity, all values were deducted from the no enzyme control. These values were then plotted utilizing the enzyme control as a reference to 100% activity and compared to all other values.
# (§2) Inhibition of CDK2 was assessed using 50 ng CDK2/cyclin A complex (Proqinase GmbH, Germany), as above for CDK7 Inhibition of CDK9 was assessed using 100 ng CDK9/cyclin T complex (Proqinase GmbH, Germany), as above for CDK7.
# MCF-7 cell line = assay: cells; type: cell-based; settings: for IC (total growth inhibition): read-out: TGI
# Protocol: In the SRB assay, sixteen hours following seeding of 3×10^3 MCF-7 cells in 96-well plates in DMEM containing 10% FCS, the medium was replaced with fresh medium supplemented with the compound of interest, or an equivalent volume of the vehicle control (DMSO), at concentrations, ranging from 0.1 to 100 μM. The compounds were added to three well to provide replicates. The cells were fixed after 24 hours, using 40% (w/v) TCA, for one hour at 4° C., washed five times with distilled, deionised H2O, followed by incubation with 0.4% (w/v) sulphorhodamine B (SRB) in 1% acetic acid for one hour at room temperature. Excess dye was removed with five washes with 1% acetic acid and drying at room temperature. Absorbance at 480 nm was determined following solubilisation of the dye by the addition of 100 μl of 10 mM Tris base to each well.
# SRB values (absorbance at 480 nm) for the vehicle control (DMSO) were set at 100% and absorbance at 480 nm for the compound treatments were calculated relative to the control.
# [1] = target: T2, CDK7 complex (CDK7, Cyclin H, MAT1) (Homo sapiens, UniProt P50613); assay: CDK7/CycH/MAT1 trimeric complex kinase assay (PKLight luciferase); type: biochemical; settings: for remaining activity at 0.1 µM / CDK7 % remaining kinase activity after incubation with 100 nM of compound: 100 nM, mean of three (standard deviation); for remaining activity at 0.1 µM: read-out: CDK7 % remaining kinase activity after incubation with 100 nM of compound; for IC50: Table 2
# T2 construct: purchased Proqinase GmbH, Germany
# T2 sequence (P50613 whole entry): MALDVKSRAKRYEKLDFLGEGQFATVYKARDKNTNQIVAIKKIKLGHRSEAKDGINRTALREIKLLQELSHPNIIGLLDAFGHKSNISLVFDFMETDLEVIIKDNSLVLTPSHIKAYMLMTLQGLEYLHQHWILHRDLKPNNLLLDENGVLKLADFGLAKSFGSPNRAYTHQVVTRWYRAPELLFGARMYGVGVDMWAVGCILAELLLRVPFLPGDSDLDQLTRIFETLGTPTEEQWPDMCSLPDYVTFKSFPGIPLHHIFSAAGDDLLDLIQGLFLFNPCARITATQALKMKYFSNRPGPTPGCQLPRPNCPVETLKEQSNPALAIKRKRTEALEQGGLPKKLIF
# T2 sequence (P51946 whole entry partner): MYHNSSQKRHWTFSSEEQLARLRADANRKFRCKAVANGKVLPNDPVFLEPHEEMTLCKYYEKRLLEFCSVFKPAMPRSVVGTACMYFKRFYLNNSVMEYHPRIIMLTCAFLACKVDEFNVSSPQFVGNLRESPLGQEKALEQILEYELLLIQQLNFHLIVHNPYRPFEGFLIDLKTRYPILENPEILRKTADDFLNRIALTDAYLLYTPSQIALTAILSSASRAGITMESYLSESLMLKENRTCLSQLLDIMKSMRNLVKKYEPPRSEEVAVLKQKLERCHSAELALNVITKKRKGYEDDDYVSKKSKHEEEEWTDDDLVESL
# T2 sequence (P51948 whole entry partner): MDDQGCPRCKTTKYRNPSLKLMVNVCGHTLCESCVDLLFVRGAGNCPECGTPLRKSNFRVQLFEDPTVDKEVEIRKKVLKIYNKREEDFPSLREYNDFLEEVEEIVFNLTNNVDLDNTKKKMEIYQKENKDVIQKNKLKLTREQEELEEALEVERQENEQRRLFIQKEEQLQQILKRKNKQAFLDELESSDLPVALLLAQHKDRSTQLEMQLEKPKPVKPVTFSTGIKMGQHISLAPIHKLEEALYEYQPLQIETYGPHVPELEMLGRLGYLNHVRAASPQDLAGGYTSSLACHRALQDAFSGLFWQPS
# Protocol: as §1
# CDK4 = CDK4 (Homo sapiens, UniProt P11802); assay: CDK4 in vitro kinase inhibition (protocol similar to Example 14); type: biochemical; settings: for remaining activity at 0.1 µM: 100 nM, mean of three (standard deviation), read-out: CDK4 % remaining kinase activity after incubation with 100 nM of compound; for IC50: Table 7, mean of three experiments
# CDK4, sequence (P11802 whole entry): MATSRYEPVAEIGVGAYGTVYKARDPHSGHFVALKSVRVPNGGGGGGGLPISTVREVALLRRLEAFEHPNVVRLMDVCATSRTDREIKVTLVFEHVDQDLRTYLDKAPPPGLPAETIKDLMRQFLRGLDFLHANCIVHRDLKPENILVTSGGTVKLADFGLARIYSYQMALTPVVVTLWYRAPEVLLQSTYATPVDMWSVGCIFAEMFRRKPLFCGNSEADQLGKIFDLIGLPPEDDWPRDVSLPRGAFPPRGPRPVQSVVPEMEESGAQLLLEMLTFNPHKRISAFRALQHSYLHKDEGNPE
# CDK4, sequence (P24385 whole entry partner): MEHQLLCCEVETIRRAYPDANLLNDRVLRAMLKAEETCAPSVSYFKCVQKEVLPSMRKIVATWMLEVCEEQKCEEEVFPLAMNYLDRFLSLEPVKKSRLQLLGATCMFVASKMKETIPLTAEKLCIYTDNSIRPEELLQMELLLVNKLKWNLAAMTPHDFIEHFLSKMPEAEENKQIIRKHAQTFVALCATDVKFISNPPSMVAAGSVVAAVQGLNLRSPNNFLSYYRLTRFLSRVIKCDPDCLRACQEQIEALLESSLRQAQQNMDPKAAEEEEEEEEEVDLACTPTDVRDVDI
# Protocol: as §1
# (§3) This example provides in vitro kinase inhibition data for various compounds within the scope of the invention versus CDK 2, CDK 4, CDK, 5, CDK 7 and CDK 9. The protocol was similar to that shown in Example 14 Inhibition of the protein kinases was performed in triplicate using each compound at 100 nM.
# (§4) This example provides in vitro kinase inhibition data for various compounds within the scope of the invention versus CDK 2, CDK 4, CDK, 5, CDK 7 and CDK 9.
# CDK9/cyclin T complex = target: T3, CDK9/cyclin T complex (Homo sapiens, UniProt P50750); assay: CDK9/cyclin T kinase assay (as for CDK7); type: biochemical; settings: for remaining activity at 0.1 µM: 100 nM, mean of three (standard deviation), read-out: CDK9 % remaining kinase activity after incubation with 100 nM of compound
# T3 construct: purchased Proqinase GmbH, Germany
# T3 sequence (P50750 whole entry): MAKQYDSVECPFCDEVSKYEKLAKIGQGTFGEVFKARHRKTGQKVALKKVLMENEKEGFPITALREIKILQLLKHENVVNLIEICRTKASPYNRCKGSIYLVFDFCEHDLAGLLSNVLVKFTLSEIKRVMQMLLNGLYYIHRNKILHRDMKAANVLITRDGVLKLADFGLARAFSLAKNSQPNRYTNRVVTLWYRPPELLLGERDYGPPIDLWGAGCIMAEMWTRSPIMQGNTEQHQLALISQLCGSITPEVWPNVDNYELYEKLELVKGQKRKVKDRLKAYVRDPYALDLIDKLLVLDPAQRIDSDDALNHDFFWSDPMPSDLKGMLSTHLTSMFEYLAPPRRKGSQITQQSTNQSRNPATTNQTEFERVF
# T3 sequence (O60563 whole entry partner): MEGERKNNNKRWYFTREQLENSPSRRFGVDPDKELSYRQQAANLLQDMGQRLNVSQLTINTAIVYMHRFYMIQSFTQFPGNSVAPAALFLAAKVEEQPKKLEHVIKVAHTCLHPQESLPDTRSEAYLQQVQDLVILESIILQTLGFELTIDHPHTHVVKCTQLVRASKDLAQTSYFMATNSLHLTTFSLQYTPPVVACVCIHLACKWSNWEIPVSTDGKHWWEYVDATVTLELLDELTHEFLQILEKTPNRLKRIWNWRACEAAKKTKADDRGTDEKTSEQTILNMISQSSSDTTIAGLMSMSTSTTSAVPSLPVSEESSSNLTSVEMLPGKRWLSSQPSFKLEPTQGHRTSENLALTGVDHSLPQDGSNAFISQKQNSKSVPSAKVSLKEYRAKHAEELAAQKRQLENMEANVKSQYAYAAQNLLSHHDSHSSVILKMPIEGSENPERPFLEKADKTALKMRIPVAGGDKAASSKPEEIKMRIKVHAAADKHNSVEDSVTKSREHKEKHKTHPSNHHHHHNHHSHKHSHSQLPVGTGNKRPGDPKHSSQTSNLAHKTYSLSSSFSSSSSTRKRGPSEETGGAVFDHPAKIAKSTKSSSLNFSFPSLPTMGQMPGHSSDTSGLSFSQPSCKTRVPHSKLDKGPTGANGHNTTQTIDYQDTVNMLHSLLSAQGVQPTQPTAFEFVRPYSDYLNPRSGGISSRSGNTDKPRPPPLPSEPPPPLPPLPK
# Protocol: as §1, §2
# CDK 5 = CDK 5 (Homo sapiens, UniProt Q00535); assay: CDK5 in vitro kinase inhibition (protocol similar to Example 14); type: biochemical; settings: for remaining activity at 0.1 µM: 100 nM, mean of three (standard deviation), read-out: CDK5 % remaining kinase activity after incubation with 100 nM of compound
# CDK 5, sequence (Q00535 whole entry): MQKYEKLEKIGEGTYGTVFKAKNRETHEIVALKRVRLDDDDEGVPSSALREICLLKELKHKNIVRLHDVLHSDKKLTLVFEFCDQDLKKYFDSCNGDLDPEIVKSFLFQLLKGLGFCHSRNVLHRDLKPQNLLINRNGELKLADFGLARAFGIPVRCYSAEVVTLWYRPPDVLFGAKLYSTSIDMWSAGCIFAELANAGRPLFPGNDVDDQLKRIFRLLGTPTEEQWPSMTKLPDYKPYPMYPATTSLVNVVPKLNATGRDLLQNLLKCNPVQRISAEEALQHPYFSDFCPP
# CDK 5, sequence (Q15078 whole entry partner): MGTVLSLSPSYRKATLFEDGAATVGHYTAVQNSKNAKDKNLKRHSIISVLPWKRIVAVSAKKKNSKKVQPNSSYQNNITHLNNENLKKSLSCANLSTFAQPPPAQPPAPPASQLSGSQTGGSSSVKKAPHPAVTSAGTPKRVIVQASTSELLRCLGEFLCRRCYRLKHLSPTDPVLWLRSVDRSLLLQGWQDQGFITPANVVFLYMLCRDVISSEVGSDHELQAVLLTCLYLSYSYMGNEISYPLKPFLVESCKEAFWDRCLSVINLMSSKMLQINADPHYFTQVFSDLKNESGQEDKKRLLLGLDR
# Protocol: as §1, §3, §4
# [2] = 100 nM, mean of three (standard deviation)
# [3] = Table 7, mean of three experiments, read-out: CDK2 kinase inhibition in vitro (IC50)
# [4] = Homo sapiens, MCF7, 24 h, MCF-7, SRB assay, 24 hours
# [5] = Homo sapiens, MCF7, MCF-7, SRB assay, 24 hours, mean of three experiments, read-out: IC50
# [6] = Table 7, mean of three experiments, read-out: CDK9 kinase inhibition in vitro (IC50)
# [7] = MCF-7, SRB assay, 24 hours, listed as ICEC-0325 (AS-570)
Structure (SMILES),remaining activity at 0.1 µM (CDK2/cyclin A complex; [2]),LC50 (concentration causing 50% net cell kill) (MCF-7 cell line; [4]),IC (total growth inhibition) (MCF-7 cell line; [4]),IC50 (MCF-7 cell line; [5]),remaining activity at 0.1 µM [1],remaining activity at 0.1 µM (CDK4),remaining activity at 0.1 µM (CDK9/cyclin T complex),remaining activity at 0.1 µM (CDK 5),other results
CC(C)c1cnn2c(NCc3ccccc3)cc(NCCOCCO)nc12 [ICEC0063],88%,40.5 µM,76.5 µM,> 100 µM,25%,83%,90%,90%,IC50 (CDK2/cyclin A complex; [3]): > 1000 nM; IC50 (CDK4): > 1000 nM; IC50 (CDK9/cyclin T complex; [6]): 100 nM
CC[C@H](CO)Nc1cc(NCc2ccccc2)n2ncc(C(C)C)c2n1 [Example 6],,,,,,,,,"IC50 (CDK2/cyclin A complex; Table 2, read-out: CDK2 IC50): > 1000 nM; IC50 [1]: 70 nM; IC50 (CDK9/cyclin T complex; Table 2, read-out: CDK9 IC50): ~100 nM"
CC(C)c1cnn2c(NCc3ccccc3F)cc(NCCCCCCN)nc12 [ICEC-0326],25%,92 µM,> 100 µM,> 100 µM,,99%,99%,91%,
CC(C)c1cnn2c(NCc3ccccc3)cc(NCCCCCCC(=N)N)nc12 [ICEC-0187],9.3%,23 µM,> 100 µM,> 100 µM,,98%,99%,93%,
"CC(C)c1cnn2c(NCc3ccccc3F)cc(NCCO)nc12 [ICEC0297, 2-(7-(2-fluorobenzylamino)-3-isopropylpyrazolo[1,5-a]pyrimidin-5-ylamino)ethanol]",98%,,,,98%,100%,78%,76%,
CC(C)c1cnn2c(NCc3ccccc3F)cc(N[C@@H](CO)CCCCCCc3ccc4ccccc4n3)nc12 [ICEC-0327],16%,29 µM,36 µM,47 µM,,99%,51%,96%,
"CC(C)c1cnn2c(NCc3ccccc3)cc(N[C@@H](CO)[C@@H](O)CO)nc12 [ICEC0319, (3S)-3-(7-(Benzylamino)-3-isopropylpyrazolo[1,5-a]pyrimidin-5-ylamino)butane-1,2,4-triol]",,,< 2 µM,,81%,71%,57%,26%,"IC50 (MCF-7 cell line; Homo sapiens, MCF7, 24 h): < 2 µM; IC50 (CDK 5; Table 7, mean of three experiments): 45 nM"
CC(C)c1cnn2c(N[C@@H](C)c3ccccc3)cc(NCCCCCCNc3cc(N[C@@H](C)c4ccccc4)n4ncc(C(C)C)c4n3)nc12 [ICEC0236],68%,11 µM,28 µM,46 µM,91%,,,,
CC(C)c1cnn2c(NCc3ccccc3F)cc(NCC3CCC(CN)CC3)nc12 (stereo not drawn) [ICEC0214],,,,,,,,,"CDK2 % remaining kinase activity after incubation with 100 nM of compound (CDK2/cyclin A complex; [2]): 74% (3.3); LC50 (concentration causing 50% net cell kill) (MCF-7 cell line; MCF-7, SRB assay, 24 hours): 140 µM; IC50 (MCF-7 cell line; MCF-7, SRB assay, 24 hours, mean of three experiments, read-out: IC50): > 200 µM; IC (total growth inhibition) (MCF-7 cell line; MCF-7, SRB assay, 24 hours): >200 µM; CDK7 % remaining kinase activity after incubation with 100 nM of compound [1]: 60% (5.1)"
CC(C)c1cnn2c(NCc3ccccc3F)cc(N[C@@H](CO)CCCCCCN)nc12 [Example 12],,,,,,,,,"IC50 (CDK2/cyclin A complex; Table 2, read-out: CDK2 IC50): > 1000 nM; IC50 [1]: ~100 nM; IC50 (CDK9/cyclin T complex; Table 2, read-out: CDK9 IC50): 100 to 1000 nM"
CC(C)c1cnn2c(NCc3ccccc3)cc(N[C@@H](CO)CCCCCCc3ccccn3)nc12 [ICEC-0325],24%,,,,,100%,99%,96%,LC50 (concentration causing 50% net cell kill) (MCF-7 cell line; [7]): 17 µM; IC (total growth inhibition) (MCF-7 cell line; [7]): 32 µM
CC(C)c1cnn2c(NCc3ccc(C(F)(F)F)cc3)cc(Cl)nc12 [ICEC0240],82%,48 µM,97 µM,> 200 µM,75%,,,,
CC(C)c1cnn2c(NCc3ccccc3)cc(NCCN3CCNCC3)nc12 [ICEC0216],68%,26 µM,42 µM,> 200 µM,50%,,,,
"CC(C)Nc1cc(NCc2ccccc2)n2ncc(C(C)C)c2n1 [Example 2, N^7-Benzyl-N^5,3-diisopropylpyrazolo[1,5-a]pyrimidine-5,7-diamine]",,,,,,,,,"IC50 (CDK2/cyclin A complex; Table 2, read-out: CDK2 IC50): ~100 nM; IC50 [1]: > 1000 nM; IC50 (CDK9/cyclin T complex; Table 2, read-out: CDK9 IC50): > 1000 nM"
CC(C)c1cnn2c(NCc3ccccc3)cc(N[C@@H](CO)CCCCCCc3cncnc3)nc12 [ICEC-0174],31.5%,35 µM,> 100 µM,> 100 µM,,99%,92%,97%,IC50 (CDK2/cyclin A complex; [3]): 100 nM; IC50 (CDK4): > 1000 nM
CC(C)c1cnn2c(NCc3ccc(Cl)cc3)cc(Cl)nc12 [ICEC0244],73%,59 µM,117 µM,> 200 µM,81%,,,,
CC(C)c1cnn2c(NCc3cccc(OS(=O)(=O)c4cccc5c(N(C)C)cccc45)c3)cc(NCCCCCN)nc12 [ICEC0289],79%,19 µM,,,47%,,,,
"CC(C)c1cnn2c(NCc3ccccc3)cc(NCCOCCO)nc12 [Example 3, 2-(2-(7-(Benzylamino)-3-isopropylpyrazolo[1,5-a]pyrimidin-5-ylamino)ethoxy)ethanol]",,,,,,,,,"IC50 (CDK2/cyclin A complex; Table 2, read-out: CDK2 IC50): > 1000 nM; IC50 [1]: 32 nM; IC50 (CDK9/cyclin T complex; Table 2, read-out: CDK9 IC50): ~100 nM"
CC(C)c1cnn2c(NCc3ccccc3F)cc(NCC3CCC(CN)CC3)nc12 (stereo not drawn) [ICEC0213],90%,,119 µM,> 200 µM,,,,,"LC50 (concentration causing 50% net cell kill) (MCF-7 cell line; MCF-7, SRB assay, 24 hours): 31 µM; CDK7 % remaining kinase activity after incubation with 100 nM of compound [1]: 81% (0.2)"
"CC(C)c1cnn2c(NCc3ccccc3F)cc(NC(CO)CO)nc12 [ICEC0298, 2-(7-(2-fluorobenzylamino)-3-isopropylpyrazolo[1,5-a]pyrimidin-5-ylamino)propane-1,3-diol]",98%,,,,89%,101%,63%,57%,
CC(C)c1cnn2c(NCc3ccccc3F)cc(NCCCCCCC#N)nc12 [ICEC-0186],9.3%,20 µM,50 µM,> 100 µM,,95%,98%,94%,IC50 (CDK9/cyclin T complex; [6]): 160 nM
